Positions of bridges follow the written chain, without caps; N, C: chain ends. Non-standard residues stand in square brackets, D forms with d. No end group written: not given here. S5 = C=CCCC[C@](C)(N)C(=O)O; βAla = NCCC(=O)O
System: E-box DNA (5′-CACGTG-3′)
Test: Electrophoretic mobility shift assay (EMSA, gel shift) with fluorophore-labeled E-box oligonucleotide
Assay type: binding
Conditions: for E-box DNA binding in gel shift (in words): E-box probe
Description: FIG. 9 Representative electrophoretic mobility shift assay (EMSA, referred to as “Gel Shift) images of full length Myc/Max protein binding a fluorophore-labeled oligonucleotide containing an E-box binding site. Full-length Myc/Max binds in this assay with an affinity of ˜10 nM.
A fluorophore-labeled (5′-FAM) oligonucleotide containing a central E-box sequence was used (at 10 nM) to assess Myc/Max and DMD binding. This sequence was used in the Myc/Max/E-box crystal structure. […] The lower band is free E-box probe whereas the higher band is Myc/Max-bound E-box probe. Addition of excess non-labeled E-box probe (E1) competes this interaction. […] Thus, gel shift assays with the E-box probe are suitable for determining DMD (RTD) DNA-binding.
Representative gel shifts are shown for the Myc/Max heterodimer and members of the RTD2x, RTD8x and RTD7x series. Plotted are binding curves derived from the intensity of the free E-box probe (inhibition) and stable shifted band (binding).

Substance	E-box DNA binding in gel shift (in words)	Kd (E-box oligonucleotide, read-out: binding affinity (Kd) for E-box DNA)	EC50 (E-box probe at 10 nM, read-out: EC50 for stable E-box binding / stable complex formation)	E-box DNA binding in gel shift (in words) (listed as MBS)
AMAS: RTD913 sub-class dimer with short straight-chain AMAS linker (Ac-W[βAla]KRAHHNALER[2‑amino‑2‑methylhept‑6‑enoic acid]RRD[S5]IKDSK; staple 13-17; not fully specified (residue 22); also: dimer via AMAS linker, attachment site not given here)	less stable complex formation	–	–	–
Myc/Max: full length recombinant Myc/Max protein heterodimer	specifically binds	~10 nM	–	–
913-MBS: RTD913 design with rigid meta-xylyl linker MBS (Ac-W[βAla]KRAHHNALER[2‑amino‑2‑methylhept‑6‑enoic acid]RRD[S5]IKDSK; staple 13-17; also: dimer via MBS (meta-xylyl) linker, attachment site not given here)	both tight and stable binding	–	50 to 100 nM	more stable DNA complex formation
EMCS: RTD913 sub-class dimer with long straight-chain EMCS linker (Ac-W[βAla]KRAHHNALER[2‑amino‑2‑methylhept‑6‑enoic acid]RRD[S5]IKDSK; staple 13-17; not fully specified (residue 22); also: dimer via EMCS linker, attachment site not given here)	less stable complex formation	–	–	–
